Source: the NIST ThermoML archive (doi:10.1016/j.jct.2016.10.042)

Assay: xn = mol fraction of the nth substance listed
Conditions: 101 kPa, Liquid, Pycnometric method

C=CC(=O)OC [methyl propenoate] + C1CCOC1
mass density [kg/m3]
Conditions	293.15 K	298.15 K	303.15 K	308.15 K	313.15 K	318.15 K
x2 = 0	953.51	947.56	941.61	935.66	929.71	923.76
x2 = 0.0773	950.05	944.24	938.43	932.62	926.81	921
x2 = 0.1554	946.35	940.67	934.99	929.31	923.63	917.95
x2 = 0.2064	943.74	938.15	932.56	926.97	921.37	915.77
x2 = 0.2545	941.15	935.63	930.11	924.58	919.05	913.52
x2 = 0.3215	937.33	931.89	926.45	921	915.55	910.1
x2 = 0.3989	932.62	927.26	921.9	916.54	911.17	905.8
x2 = 0.4655	928.35	923.06	917.77	912.47	907.17	901.87
x2 = 0.53	924.03	918.8	913.57	908.33	903.09	897.85
x2 = 0.6023	918.98	913.81	908.64	903.47	898.3	893.13
x2 = 0.6834	913.02	907.92	902.82	897.72	892.62	887.52
x2 = 0.7632	906.87	901.83	896.79	891.75	886.7	881.65
x2 = 0.8468	900.16	895.17	890.18	885.19	880.19	875.19
x2 = 0.9316	893	888.04	883.08	878.12	873.16	868.2

C=CC(=O)OC(C)(C)C [tert-butyl acrylate] + C1CCOC1
mass density [kg/m3]
Conditions	293.15 K	298.15 K	303.15 K	308.15 K	313.15 K	318.15 K
x2 = 0	884.13	879.66	875.2	870.74	866.28	861.82
x2 = 0.0736	884.47	880.01	875.55	871.08	866.61	862.14
x2 = 0.1489	884.84	880.36	875.88	871.4	866.92	862.44
x2 = 0.2121	885.14	880.65	876.16	871.67	867.17	862.67
x2 = 0.2773	885.43	880.92	876.41	871.9	867.39	862.88
x2 = 0.362	885.78	881.25	876.71	872.17	867.63	863.09
x2 = 0.4382	886.06	881.5	876.94	872.37	867.8	863.23
x2 = 0.5024	886.28	881.69	877.1	872.5	867.9	863.3
x2 = 0.5815	886.5	881.87	877.24	872.61	867.98	863.35
x2 = 0.6532	886.66	882	877.34	872.67	868	863.33
x2 = 0.7268	886.79	882.08	877.37	872.66	867.95	863.24
x2 = 0.7921	886.88	882.13	877.38	872.62	867.86	863.1
x2 = 0.8698	886.97	882.15	877.33	872.51	867.69	862.86
x2 = 0.9352	887	882.12	877.24	872.36	867.48	862.59
